Test results published in the supplement of paper PMC13207355.

How the values were obtained:
Details in all cases: exposure time: 72 h
E13 [1] = patient-derived glioblastoma stem cells of classical subtype; test: surviving fraction (nuclei count normalised to DMSO); higher = more cells surviving (less toxic)
E21 [2] = patient-derived glioblastoma stem cells of mesenchymal subtype; test: as above
E28 [3] = patient-derived glioblastoma stem cells of classical subtype; test: as above
E31 [4] = patient-derived glioblastoma stem cells of proneural subtype; test: as above
E34 [5] = patient-derived glioblastoma stem cells of proneural subtype; test: as above
E57 [6] = patient-derived glioblastoma stem cells of mesenchymal subtype; test: as above
FT3469 [7] = normal neural stem cell line; test: as above
E13 [8] = test: phenotypic distance (Euclidean, principal components) from DMSO controls (arbitrary units); higher = stronger morphological change
E21 [9] = test: as above
E28 [10] = test: as above
E31 [11] = test: as above
E34 [12] = test: as above
E57 [13] = test: as above
FT3469 [14] = test: as above
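For phenotypic distance (Euclidean, principal components) from DMSO controls in this document: cell Painting imaging in 384-well plates, CellProfiler features reduced to at least 20 principal components, Euclidean distance versus same-plate DMSO vehicle wells (0.1% v/v), median over six images per well.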
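For surviving fraction (nuclei count normalised to DMSO) in this document: nuclei counted by high-content imaging of Hoechst-stained cells in laminin-coated 384-well plates, relative to 0.1% DMSO vehicle wells, with staurosporine as cell-death control.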

CCC(=O)OCC(=O)[C@@]1(OC(=O)CC)[C@H](C)C[C@H]2[C@H]3[C@H]([C@@H](O)C[C@@]21C)[C@@]1(C)C=CC(=O)C=C1C[C@H]3Cl [Alclometasone dipropionate]
Details | phenotypic distance | surviving fraction
E13 [1], 4.1 nM | – | 0.975
E13 [1], 12.3 nM | – | 0.888
E13 [1], 37 nM | – | 0.926
E13 [1], 111.1 nM | – | 0.859
E13 [1], 333.3 nM | – | 0.951
E13 [1], 1000 nM | – | 0.974
E13 [1], 3000 nM | – | 0.671
E13 [8], 4.1 nM | 1.28 | –
E13 [8], 12.3 nM | 1.12 | –
E13 [8], 37 nM | 1.27 | –
E13 [8], 111.1 nM | 1.15 | –
E13 [8], 333.3 nM | 1.25 | –
E13 [8], 1000 nM | 1.24 | –
E13 [8], 3000 nM | 1.47 | –
E21 [2], 4.1 nM | – | 1.32
E21 [2], 12.3 nM | – | 1.26
E21 [2], 37 nM | – | 1.21
E21 [2], 111.1 nM | – | 1.39
E21 [2], 333.3 nM | – | 1.2
E21 [2], 1000 nM | – | 1.2
E21 [2], 3000 nM | – | 1.1
E21 [9], 4.1 nM | 1.94 | –
E21 [9], 12.3 nM | 2.13 | –
E21 [9], 37 nM | 2.45 | –
E21 [9], 111.1 nM | 3.04 | –
E21 [9], 333.3 nM | 2.13 | –
E21 [9], 1000 nM | 2.23 | –
E21 [9], 3000 nM | 2.27 | –
E28 [3], 4.1 nM | – | 1.25
E28 [3], 12.3 nM | – | 0.854
E28 [3], 37 nM | – | 1.17
E28 [3], 111.1 nM | – | 0.928
E28 [3], 333.3 nM | – | 1.08
E28 [3], 1000 nM | – | 1.38
E28 [3], 3000 nM | – | 0.939
E28 [10], 4.1 nM | 0.573 | –
E28 [10], 12.3 nM | 0.69 | –
E28 [10], 37 nM | 0.865 | –
E28 [10], 111.1 nM | 0.821 | –
E28 [10], 333.3 nM | 0.465 | –
E28 [10], 1000 nM | 1.06 | –
E28 [10], 3000 nM | 0.433 | –
E31 [4], 4.1 nM | – | 1.3
E31 [4], 12.3 nM | – | 1.46
E31 [4], 37 nM | – | 1.4
E31 [4], 111.1 nM | – | 1.41
E31 [4], 333.3 nM | – | 1.12
E31 [4], 1000 nM | – | 1.19
E31 [4], 3000 nM | – | 1.23
E31 [11], 4.1 nM | 2.71 | –
E31 [11], 12.3 nM | 4.05 | –
E31 [11], 37 nM | 4.11 | –
E31 [11], 111.1 nM | 3.84 | –
E31 [11], 333.3 nM | 2.94 | –
E31 [11], 1000 nM | 3.4 | –
E31 [11], 3000 nM | 3.3 | –
E34 [5], 4.1 nM | – | 1.1
E34 [5], 12.3 nM | – | 1.15
E34 [5], 37 nM | – | 1.1
E34 [5], 111.1 nM | – | 1.1
E34 [5], 333.3 nM | – | 0.991
E34 [5], 1000 nM | – | 1.06
E34 [5], 3000 nM | – | 0.984
E34 [12], 4.1 nM | 0.626 | –
E34 [12], 12.3 nM | 1.12 | –
E34 [12], 37 nM | 0.662 | –
E34 [12], 111.1 nM | 1.42 | –
E34 [12], 333.3 nM | 1.36 | –
E34 [12], 1000 nM | 1.38 | –
E34 [12], 3000 nM | 1.48 | –
E57 [6], 4.1 nM | – | 1.12
E57 [6], 12.3 nM | – | 1.18
E57 [6], 37 nM | – | 1.1
E57 [6], 111.1 nM | – | 1.07
E57 [6], 333.3 nM | – | 1.11
E57 [6], 1000 nM | – | 1.14
E57 [6], 3000 nM | – | 1.13
E57 [13], 4.1 nM | 1.91 | –
E57 [13], 12.3 nM | 2.63 | –
E57 [13], 37 nM | 2.58 | –
E57 [13], 111.1 nM | 2.62 | –
E57 [13], 333.3 nM | 3.15 | –
E57 [13], 1000 nM | 3.25 | –
E57 [13], 3000 nM | 2.81 | –
FT3469 [7], 4.1 nM | – | 1.16
FT3469 [7], 12.3 nM | – | 1.29
FT3469 [7], 37 nM | – | 1.33
FT3469 [7], 111.1 nM | – | 1.15
FT3469 [7], 333.3 nM | – | 1.07
FT3469 [7], 1000 nM | – | 1.19
FT3469 [7], 3000 nM | – | 1.02
FT3469 [14], 4.1 nM | 1.11 | –
FT3469 [14], 12.3 nM | 1.62 | –
FT3469 [14], 37 nM | 1.67 | –
FT3469 [14], 111.1 nM | 2.12 | –
FT3469 [14], 333.3 nM | 1.8 | –
FT3469 [14], 1000 nM | 1.92 | –
FT3469 [14], 3000 nM | 1.23 | –

Cc1cc(/C=C/c2ccc3cc(N(C)C)ccc3[n+]2C)c(C)n1-c1ccccc1 [Pyrvinium pamoate]
Details | phenotypic distance | surviving fraction
E13 [1], 4.1 nM | – | 0.769
E13 [1], 12.3 nM | – | 0.742
E13 [1], 37 nM | – | 0.57
E13 [1], 111.1 nM | – | 0.408
E13 [1], 333.3 nM | – | 0.479
E13 [1], 1000 nM | – | 0.264
E13 [1], 3000 nM | – | 0.0823
E13 [8], 4.1 nM | 4.29 | –
E13 [8], 12.3 nM | 1.32 | –
E13 [8], 37 nM | 2.18 | –
E13 [8], 111.1 nM | 4.63 | –
E13 [8], 333.3 nM | 4.15 | –
E13 [8], 1000 nM | 4.49 | –
E13 [8], 3000 nM | 6.77 | –
E21 [2], 4.1 nM | – | 0.856
E21 [2], 12.3 nM | – | 0.815
E21 [2], 37 nM | – | 0.577
E21 [2], 111.1 nM | – | 0.467
E21 [2], 333.3 nM | – | 0.425
E21 [2], 1000 nM | – | 0.149
E21 [2], 3000 nM | – | 0.00213
E21 [9], 4.1 nM | 0.978 | –
E21 [9], 12.3 nM | 1.16 | –
E21 [9], 37 nM | 2.86 | –
E21 [9], 111.1 nM | 4.87 | –
E21 [9], 333.3 nM | 4.65 | –
E21 [9], 1000 nM | 6.33 | –
E21 [9], 3000 nM | 23.7 | –
E28 [3], 4.1 nM | – | 0.853
E28 [3], 12.3 nM | – | 0.704
E28 [3], 37 nM | – | 0.547
E28 [3], 111.1 nM | – | 0.278
E28 [3], 333.3 nM | – | 0.195
E28 [3], 1000 nM | – | 0.106
E28 [3], 3000 nM | – | 0.0134
E28 [10], 4.1 nM | 0.873 | –
E28 [10], 12.3 nM | 1.67 | –
E28 [10], 37 nM | 2.93 | –
E28 [10], 111.1 nM | 4.57 | –
E28 [10], 333.3 nM | 4.5 | –
E28 [10], 1000 nM | 4.93 | –
E28 [10], 3000 nM | 9.86 | –
E31 [4], 4.1 nM | – | 1.01
E31 [4], 12.3 nM | – | 0.828
E31 [4], 37 nM | – | 0.484
E31 [4], 111.1 nM | – | 0.21
E31 [4], 333.3 nM | – | 0.146
E31 [4], 1000 nM | – | 0.0654
E31 [4], 3000 nM | – | 0
E31 [11], 4.1 nM | 1.33 | –
E31 [11], 12.3 nM | 1.04 | –
E31 [11], 37 nM | 2.33 | –
E31 [11], 111.1 nM | 5.34 | –
E31 [11], 333.3 nM | 7.12 | –
E31 [11], 1000 nM | 9.54 | –
E31 [11], 3000 nM | 18.8 | –
E34 [5], 4.1 nM | – | 0.92
E34 [5], 12.3 nM | – | 0.867
E34 [5], 37 nM | – | 0.645
E34 [5], 111.1 nM | – | 0.578
E34 [5], 333.3 nM | – | 0.667
E34 [5], 1000 nM | – | 0.443
E34 [5], 3000 nM | – | 0.5
E34 [12], 4.1 nM | 0.966 | –
E34 [12], 12.3 nM | 0.752 | –
E34 [12], 37 nM | 1.33 | –
E34 [12], 111.1 nM | 3.14 | –
E34 [12], 333.3 nM | 3.58 | –
E34 [12], 1000 nM | 4.06 | –
E34 [12], 3000 nM | 6.46 | –
E57 [6], 4.1 nM | – | 1.05
E57 [6], 12.3 nM | – | 1.01
E57 [6], 37 nM | – | 0.785
E57 [6], 111.1 nM | – | 0.364
E57 [6], 333.3 nM | – | 0.272
E57 [6], 1000 nM | – | 0.155
E57 [6], 3000 nM | – | 0.0231
E57 [13], 4.1 nM | 1.23 | –
E57 [13], 12.3 nM | 0.86 | –
E57 [13], 37 nM | 2.14 | –
E57 [13], 111.1 nM | 6.51 | –
E57 [13], 333.3 nM | 7.55 | –
E57 [13], 1000 nM | 8.44 | –
E57 [13], 3000 nM | 11.2 | –
FT3469 [7], 4.1 nM | – | 0.97
FT3469 [7], 12.3 nM | – | 0.882
FT3469 [7], 37 nM | – | 0.866
FT3469 [7], 111.1 nM | – | 0.677
FT3469 [7], 333.3 nM | – | 0.61
FT3469 [7], 1000 nM | – | 0.461
FT3469 [7], 3000 nM | – | 0.0541
FT3469 [14], 4.1 nM | 1.38 | –
FT3469 [14], 12.3 nM | 1.31 | –
FT3469 [14], 37 nM | 2.27 | –
FT3469 [14], 111.1 nM | 2.94 | –
FT3469 [14], 333.3 nM | 3.78 | –
FT3469 [14], 1000 nM | 7.4 | –
FT3469 [14], 3000 nM | 13 | –
